{
  "source": "patent US20260014129A1",
  "about": "“MITOCHONDRIAL PYRUVATE METABOLISM INHIBITORS FOR TREATING CHRONIC MYELOID LEUKEMIA” (The University Court of the University of Glasgow, priority 2022, published 2026)",
  "key": {"[1]": {"tested_on": "CML CD34+ cells", "assay": "LC-MS steady state metabolite analysis of primary CML CD34+ cells", "assay_type": "cell-based, human", "method": "(§1) Cells were counted using a CASY counter with the following parameters: E-cur 7.5-22.5, N-cur 5.25-20.5. Cell number was multiplied by peak volume (size) and this number was used to calculate volume of solvent to extract in. Cells were pelleted by centrifugation (400 RCF, 10 minutes, room temperature) at which medium was removed for YSI analysis. Cells were then washed twice with ice cold PBS (Calcium and Magnesium free: Thermo Fisher Scientific) with pulse centrifugation (12,000RCF, 15 seconds, 4° C.) used between and after washes. Cells were then extracted in LC-grade ACN:MeOH:H2O solvent (−20° C., 5:3:2) by disrupting the pellet by pipetting followed by a 5 second vortex. Finally, debris was pelleted by centrifugation (16,000RCF, 10 minutes, 4° C.), supernatant transferred to LC-MS glass vials that were stored at −80° C. until analysis.\nThe LC system composed of a ZIC-pHILIC column (SeQuant, 150×2.1 mm, 5 μm, Merck KGaA) with a ZIC-pHILIC guard column (SeQuant, 20×2.1 mm) with an UltiMate 3000 HPLC system (Thermo Fisher Scientific). The aqueous mobile-phase solvent was 20 mM ammonium carbonate-0.1% ammonium hydroxide solution and with acetonitrile being used for organic mobile phase. A linear biphasic LC gradient was conducted from 80% organic to 80% aqueous for 15 min for a total run time of 22 min. The column temperature was maintained at 45° C. flow rate set to 200 μL/min.\nThe MS used in this study was a qExactive Plus Orbitrap Mass Spectrometer (Thermo Fisher Scientific) operating in polarity switching mode. The MS set up was calibrated using a custom CALMIX in both ionization modes before analysis and a tune file targeted towards the lower m/z range was used. Full scan (MS1) data was acquired in both ionization modes in profile mode at 70,000 resolution (at m/z range 75-1000), an automatic gain control (AGC) target of 1×10^6 (max fill time of 250 ms), with spray voltages +4.5 kV (capillary +50V, tube: […], skimmer: +20V) and −3.5 kV (capillary −50V, tube: […], skimmer: −20V) and s-lens RF level of 50 for the front optics. The capillary temperature 375° C., probe temperature 50′C, sheath gas flow rate 25, auxiliary gas flow rate 15a.u. 15 and sweep gas flow rate of 1a.u.\n(§2) The peak areas of different metabolites were determined using Tracefinder 4.1 software (Thermo Fisher Scientific). Metabolites were identified by accurate mass of the singly charged ion and by known retention times on the pHILIC column. A commercially available standard compound mix (Merck: MSMLS-1EA) had been analysed previously on our LC-MS system to determine accurate ion masses and retention times. The 13C labelling was determined by quantifying peak areas for the accurate mass of all isotopologues of each metabolite.\nTwo independent experiments were performed, data normalised to first sample in each experiment, processed through Autoplotter (56), samples as experiments, and normalised data as replicates. […] For MSDC-0160 treated samples a batch correction (to non-drug control) was used prior to analysis using Metabonalyst. Volcano plots were generated, and an FDR adjusted t-test threshold 0.1 was utilised. Note both fold changes and p-values are log transformed. Top-25 scoring metabolites are included in heatmap."}, "[2]": {"tested_on": "CML CD34+ cells", "assay": "13C stable isotope tracing (glucose, glutamine, palmitate) in primary CML CD34+ cells", "assay_type": "cell-based, human", "method": "For conjugation of palmitate, a 20 mM stock was made in 100% EtOH. This was incubated on a shaking heater, 60° C. until the solution clarified. The palmitate was then added to 10% BSA (ultra-fatty acid free in EBSS, Roche, 03117057001) to give a palmitate:BSA ratio of 1:3 BSA. This solution was left for 15 min in water bath (37° C.), and then added to final concentration in complete medium. For cell line experiments, the medium was RPMI with 10% dialysed FBS and 1% penicillin/streptomycin. For tracing experiments 11 mM ^13C6 glucose was added to glucose-free RPMI.\nas §1, §2\nBiological and technical replicates were processed through Autoplotter (56) and natural abundance was corrected for. Fraction of enrichment was calculated as m+2 and above. For CML samples treated with or without imatinib, multiple paired T-tests were conducted on Log 10 transformed values in Graphpad Prism. The correction for multiple comparisons was the two-stage step-up method of Benjamini, Krieger and Yekutieli with an FDR (Q) value of 10%. For volcano plots Log 10 FC vs Log 10 (q value) are plotted with q values>5% in red and >10% in blue. For normal vs CML comparisons, the process was the same with the exception that unpaired t-tests were used. For PC activity in normal vs CML, this is denoted by fraction m+3. For imatinib vs untreated we look at relative activity to PDH. IE., the m+3/m+2 ratio and conducted multiple t-tests with correction for multiple comparisons being the two-stage step-up method of Benjamini, Krieger and Yekutieli with an FDR (Q) value of 10%."}, "[3]": {"tested_on": "CML CD34+ cells", "assay": "Colony forming cell (CFC) assay of CML CD34+ cells", "assay_type": "cell-based, human", "conditions": "72 hours, n=6 CML patients"}, "[4]": {"tested_on": "normal CD34+ cells", "assay": "Colony forming cell (CFC) assay of normal CD34+ cells", "assay_type": "cell-based, human", "conditions": "72 hours, n=3 healthy donors"}, "[5]": {"biological_target": "T1, MPC (Homo sapiens, UniProt O95563+Q9Y5U8)", "T1 sequence (Q9Y5U8 1-109)": "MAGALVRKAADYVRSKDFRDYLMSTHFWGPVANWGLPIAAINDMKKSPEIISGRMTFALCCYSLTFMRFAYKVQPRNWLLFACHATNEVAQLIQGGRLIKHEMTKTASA", "T1 sequence (O95563 1-127)": "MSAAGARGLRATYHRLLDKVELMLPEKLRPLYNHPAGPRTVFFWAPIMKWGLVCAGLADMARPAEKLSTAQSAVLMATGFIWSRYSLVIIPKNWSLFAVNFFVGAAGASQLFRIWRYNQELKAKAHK", "conditions": "variety of cell types (ref 27); cited from earlier work"}, "[6]": {"conditions": "imatinib 2 μM, 48 hours, CML CD34+ cells"}},
  "data": [
    {"compound": "CCc1ccc(C(=O)COc2ccc(CC3SC(=O)NC3=O)cc2)nc1", "note": "(stereo not shown) [MSDC-0160]", "values": [
      {"measurement": "dose at which steady state analysis showed significant metabolic changes", "setting": "[1]; primary CML CD34+ samples, 24 hours, highest dose", "result": 100, "unit": "µM"},
      {"measurement": "m+2 and m+3 fractions of TCA cycle metabolites", "setting": "[2]; 20 or 100 μM MSDC-0160, primary CML CD34+ samples", "result": "significant decreases to both m+2 and m+3 fractions"},
      {"measurement": "inhibition of glucose oxidation in primitive CD34+CD38- population", "setting": "[2]; compared with CD34+CD38+ progenitor population, data not shown", "result": "to a similar extent as in the CD34^+CD38^+ progenitor population"},
      {"measurement": "inhibition of labelling in stromal co-culture", "setting": "[2]; presence of stromal cells, 24-hour culture, 50 uM", "result": "also achieved in the presence of stromal cells"},
      {"measurement": "total glucose contribution and m+3 contribution to TCA cycle metabolites", "setting": "[2]; primary CML CD34+ samples, 24 hours", "result": "reduced both total glucose contribution and m+3 contribution to TCA cycle metabolites in a dose-dependent manner"},
      {"measurement": "dose required to fully inhibit labelling", "setting": "[2]; primary CML CD34+ samples, medium with Albumax II", "result": 100, "unit": "µM"},
      {"measurement": "number of colonies, MSDC-0160 added to imatinib", "setting": "[3]; 20 or 50 μM MSDC-0160 plus 2 μM imatinib", "result": "further concentration-dependent reduction"},
      {"measurement": "CFC potential of normal CD34+ cells, single agent", "setting": "[4]", "result": "no significant effect"},
      {"measurement": "CFC potential of normal CD34+ cells, combination treatment", "setting": "[4]; MSDC-0160 plus 2 μM imatinib", "result": "no significant effect"},
      {"measurement": "inhibition of MPC activity", "setting": "[5]", "result": "specifically inhibit MPC activity"}
    ]},
    {"compound": "Cc1ccc(NC(=O)c2ccc(CN3CCN(C)CC3)cc2)cc1Nc1nccc(-c2cccnc2)n1", "note": "[imatinib]", "values": [
      {"measurement": "ATP levels", "setting": "[1]; imatinib 2 μM, 48 hours", "result": "trend towards reduced ATP levels"},
      {"measurement": "oxidative stress, cellular redox and TCA cycle metabolites, steady state", "setting": "[1]; imatinib 2 μM, 48 hours", "result": "decreases"},
      {"measurement": "AMP/ATP ratio", "setting": "[1]; imatinib 2 μM, 48 hours, n=4 patient samples", "result": "significant increase in AMP/ATP ratio"},
      {"measurement": "glucose incorporation (13C-glucose labelling) in sorted CML CD34+CD38- cells", "setting": "[2]; imatinib 2 μM, 24 hours, n=3", "result": "statistically significant reduction"},
      {"measurement": "relative PC/PDH activity in CML CD34+CD38- cells", "setting": "[2]; imatinib 2 μM, 24 hours, n=3, p-value=0.0870", "result": "increased in all three patient samples"},
      {"measurement": "PC relative to PDH contribution of glucose (m+3/m+2 ratio in malate, citrate, aspartate)", "setting": "[2]; [6]", "result": "increased"},
      {"measurement": "glucose contribution to metabolite fraction labelling (13C6 glucose)", "setting": "[2]; [6]", "result": "reduced"},
      {"measurement": "glutamine contribution to metabolite fraction labelling (13C5 glutamine)", "setting": "[2]; [6]", "result": "reduced"},
      {"measurement": "palmitate contribution to metabolite fraction labelling (13C16 palmitate)", "setting": "[2]; [6]", "result": "not significantly different"},
      {"measurement": "labelled fractions of TCA cycle metabolites affected", "setting": "[2]; imatinib, primary CML CD34+ samples, not shown", "result": "only affected m+2 fractions"},
      {"measurement": "number of colonies", "setting": "[3]; 2 μM imatinib alone", "result": "reduced the number of colonies"},
      {"measurement": "CFC potential of normal CD34+ cells, single agent", "setting": "[4]", "result": "no significant effect"}
    ]}
  ]
}
